Assay results taken from patent publication US20130150325A1, “3-(Fluorovinyl)pyrazoles and their use” (BAYER INTELLECTUAL PROPERTY GMBH, priority 2011, published 2013).

System: HCT 116 cells transfected with a luciferase reporter under the control of an HIF-responsive sequence
Assay: HIF-luciferase assay
Format: cell-based
Details: Homo sapiens; HCT 116 HIF-luciferase reporter cells, hypoxia chamber (1% O2), 24 h; in some cases means of up to four individual determinations
Experimental: HCT 116 cells were transfected in a stable manner with a plasmid which contained a luciferase reporter under the control of an HIF-responsive sequence. These cells were sown in microtitre plates [20 000 cells/cavity in RPMI 1640 medium with 10% foetal calf serum (FCS) and 100 μg/ml of hygromycin]. Incubation was carried out overnight under standard conditions (5% CO2, 21% O2, 37° C., moistened). The following morning the cells were incubated with various concentrations of the test substances (0-10 μmol/l) in a hypoxia chamber (1% O2). After 24 h, Bright Glo reagent (Promega, Wisconsin, USA) was added in accordance with the manufacturer's instructions, and after 5 min the luminescence was measured. Cells which were incubated under normoxia served as background controls.
The IC50 values from this assay for representative working examples are listed in the following table (in same cases as means of up to four individual determinations): […]

| SMILES | IC50 [nM] |
| --- | --- |
| CNc1ccc(Cn2nc(/C(F)=C/c3ccc(C4(C(F)(F)F)CC4)cc3)cc2C)cn1 [Example 84, 5-({3-[(Z)-1-Fluoro-2-{4-[1-(trifluoromethyl)cyclopropyl]phenyl}vinyl]-5-methyl-1H-pyrazol-1-yl}methyl)-N-methylpyridine-2-amine] | 2 |
| CNc1ccc(Cn2nc(/C(F)=C/c3ccc(C(F)(F)F)cc3)cc2C)cn1 [Example 85, 5-[(3-{(Z)-1-Fluoro-2-[4-(trifluoromethyl)phenyl]vinyl}-5-methyl-1H-pyrazol-1-yl)methyl]-N-methylpyridine-2-amine] | 4 |
| CNc1ccc(Cn2nc(/C(F)=C/c3ccc([Si](C)(C)C)cc3)cc2C)cn1 [Example 86, 5-[(3-{(Z)-1-Fluoro-2-[4-(trimethylsilyl)phenyl]vinyl}-5-methyl-1H-pyrazol-1-yl)methyl]-N-methylpyridine-2-amine] | 0.3 |
| CNc1ccc(Cn2nc(/C(F)=C/c3ccc(C(C)(C)C)cc3)cc2C)cn1 [Example 87, 5-({3-[(Z)-2-(4-tert-Butylphenyl)-1-fluorovinyl]-5-methyl-1H-pyrazol-1-yl}methyl)-N-methylpyridine-2-amine] | 0.7 |
| CNc1ccc(Cn2nc(/C(F)=C/c3ccc(C4CCCCC4)cc3)cc2C)cn1 [Example 88, 5-({3-[(Z)-2-(4-Cyclohexylphenyl)-1-fluorovinyl]-5-methyl-1H-pyrazol-1-yl}methyl)-N-methylpyridine-2-amine] | 2 |
| CNc1ccc(Cn2nc(/C(F)=C/c3ccc(C(C)C)cc3)cc2C)cn1 [Example 89, 5-({3-[(Z)-1-Fluoro-2-(4-isopropylphenyl)vinyl]-5-methyl-1H-pyrazol-1-yl}methyl)-N-methyl-pyridine-2-amine] | 2 |
| CNc1ccc(Cn2nc(/C(F)=C/c3ccc(CC(C)C)cc3)cc2C)cn1 [Example 90, 5-({3-[(Z)-1-Fluoro-2-(4-isobutylphenyl)vinyl]-5-methyl-1H-pyrazol-1-yl}methyl)-N-methyl-pyridine-2-amine] | 2 |
| CNc1ccc(Cn2nc(/C(F)=C/c3ccc(S(F)(F)(F)(F)F)cc3)cc2C)cn1 [Example 91, 5-[(3-{(Z)-1-Fluoro-2-[4-(pentafluoro-λ^6-sulphanyl)phenyl]vinyl}-5-methyl-1H-pyrazol-1-yl)-methyl]-N-methylpyridine-2-amine] | 0.3 |
| CCNC(=O)C(C)(C)Sc1ccc(/C=C(\F)c2cc(C)n(Cc3ccc(NC)nc3)n2)cc1 [Example 92, N-Ethyl-2-({4-[(Z)-2-fluoro-2-(5-methyl-1-{[6-(methylamino)pyridin-3-yl]methyl}-1H-pyrazol-3-yl)vinyl]phenyl}sulphanyl)-2-methylpropanamide] | 5 |

Now from value to compound:

| IC50 [nM] | SMILES |
| --- | --- |
| 5 | CNc1ccc(Cn2nc(/C(F)=C/c3ccc(SC(C)(C)C(=O)N4CCCC4)cc3)cc2C)cn1 [Example 93, 2-({4-[(Z)-2-Fluoro-2-(5-methyl-1-{[6-(methylamino)pyridin-3-yl]methyl}-1H-pyrazol-3-yl)-vinyl]phenyl}sulphanyl)-2-methyl-1-(pyrrolidin-1-yl)propan-1-one] |
| 1 | CNc1ccc(Cn2nc(/C(F)=C/c3ccc(CN(C(C)C)C(C)C)cc3)cc2C)cn1 [Example 94, 5-({3-[(Z)-2-{4-[(Diisopropylamino)methyl]phenyl}-1-fluorovinyl]-5-methyl-1H-pyrazol-1-yl}-methyl)-N-methylpyridine-2-amine] |
| 0.6 | CNc1ccc(Cn2nc(/C(F)=C/c3ccc(N4CC(C)OC(C)C4)nc3)cc2C)cn1 (stereo not shown) [Example 95, 5-[(3-{(Z)-2-[6-(2,6-Dimethylmorpholin-4-yl)pyridin-3-yl]-1-fluorovinyl}-5-methyl-1H-pyrazol-1-yl)methyl]-N-methylpyridine-2-amine] |
| 1 | CCNc1ccc(Cn2nc(/C(F)=C/c3ccc(C(C)(C)C(F)(F)F)cc3)cc2C)cn1 [Example 96, N-Ethyl-5-[(3-{(Z)-1-fluoro-2-[4-(1,1,1-trifluoro-2-methylpropan-2-yl)phenyl]vinyl}-5-methyl-1H-pyrazol-1-yl)methyl]pyridine-2-amine] |
